Reference: US9624238B2, “4H-thieno[3,2-C]chromene-based inhibitors of Notum Pectinacetylesterase and methods of their use” (Lexicon Pharmaceuticals, Inc., priority 2011, dated 2017)

What was measured:
[1] = target: T1, human notum pectinacetyltransferase (Homo sapiens, UniProt Q6P988); test: Reporter assay (CellSensor LEF/TCF-bla FreeStyle 293F cells, Wnt3a and notum conditioned media); assay type: cell-based; details: class symbols
T1 construct: made in house; unpurified conditioned medium used
T1 sequence (Q6P988 20-496): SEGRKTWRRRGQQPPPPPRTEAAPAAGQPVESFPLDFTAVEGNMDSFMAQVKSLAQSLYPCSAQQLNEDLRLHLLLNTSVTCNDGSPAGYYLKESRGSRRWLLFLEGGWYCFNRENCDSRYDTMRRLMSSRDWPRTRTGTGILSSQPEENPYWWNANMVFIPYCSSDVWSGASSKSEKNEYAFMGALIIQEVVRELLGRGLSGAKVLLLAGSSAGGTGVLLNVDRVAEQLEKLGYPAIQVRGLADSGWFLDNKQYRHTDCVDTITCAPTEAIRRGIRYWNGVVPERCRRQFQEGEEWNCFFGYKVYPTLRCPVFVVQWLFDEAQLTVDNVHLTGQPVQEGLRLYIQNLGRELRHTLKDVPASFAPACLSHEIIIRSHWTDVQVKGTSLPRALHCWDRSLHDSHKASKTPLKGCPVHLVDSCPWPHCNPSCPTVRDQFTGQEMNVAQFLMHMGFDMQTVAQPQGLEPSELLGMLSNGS

[2] = target: T1, human notum pectinacetyltransferase; test: Binding assay (OPTS esterase substrate, fluorimetric); assay type: biochemical
Procedure: Plasmid containing human notum pectinacetyltransferase in pcDNA3.1(+) vector was transfected into HEK (293 cells and clones were selecting by growing in presence of 400 ug/mL of G418. Condition media from these cells was used for the assay.

Structure (SMILES)	EC50 [1] [µM]	IC50 ([2]; class symbols) [µM]	IC50 ([2]; given as numeric bound above the legend's highest class) [µM]
COc1ccc2c(c1)CCc1cc(C(=O)O)sc1-2 [7-methoxy-4,5-dihydronaphtho[1,2-b]thiophene-2-carboxylic acid]	< 0.05	< 2	–
NCCNC(=O)c1cc2c(s1)-c1ccccc1CC2 [N-(2-aminoethyl)-4,5-dihydronaphtho[1,2-b]thiophene-2-carboxamide]	< 0.5	< 2	–
O=C(NCCO)c1cc2c(s1)-c1ccccc1CC2 [N-(2-hydroxyethyl)-4,5-dihydronaphtho[1,2-b]thiophene-2-carboxamide]	< 0.05	< 1	–

More lines, now with the values ahead:

EC50 [1] [µM]	IC50 ([2]; class symbols) [µM]	IC50 ([2]; given as numeric bound above the legend's highest class) [µM]	Structure (SMILES)
< 0.05	< 0.05	–	CCOC(=O)c1cc2c(s1)-c1ccc(C)c(C#N)c1CC2 [ethyl 6-cyano-7-methyl-4,5-dihydronaphtho[1,2-b]thiophene-2-carboxylate]
< 0.5	–	> 2	CCOC(=O)c1cc2c(s1)-c1ccc(OC)cc1CC2 [ethyl 7-methoxy-4,5-dihydronaphtho[1,2-b]thiophene-2-carboxylate]
